We go through four molecules from publication PMC11755529, “Chlorpyrifos Acts as a Positive Modulator and an Agonist of N-Methyl-D-Aspartate (NMDA) Receptors: A Novel Mechanism of Chlorpyrifos-Induced Neurotoxicity” (Journal of Xenobiotics, 2025).

pEC50: −log10 of the molar value. Like-named read-outs stand apart in the source and are kept apart here.

Data set [1] addresses T1, GluN1-1a/GluN2B NMDAR (Rattus norvegicus, UniProt P35439+Q00960).
T1 construct: expressed in transfected cells; host or cells: Xenopus laevis oocytes, injected with cRNA or plasmid DNA (pRK7 or pBluescript SK(-))
The data set is described as follows: TEVC electrophysiology of Xenopus oocytes expressing GluN1-1a/GluN2B. In kind it is cell-based. How it is done: (§1) Ovaries of mature female Xenopus laevis were supplied by the European Xenopus Resource Centre (University of Portsmouth, Portsmouth, UK). Upon receipt, oocytes were first separated with 1 mg/mL collagenase (Type 1A from Clostridium histolyticum; Sigma, Poole, UK) in Ca^2+-free Barth’s gentamicin–theophylline–pyruvate (GTP) solution (96 mM NaCl, 2 mM KCl, 1 mM MgCl2, 5 mM HEPES, 2.5 mM pyruvic acid, 0.5 mM theophylline, 50 μg/mL gentamicin, pH 7.5) on a shaker for approximately 45 min at room temperature. Oocytes were then rinsed with Ca^2+-free GTP solution six to eight times until a clear solution was obtained and incubated in normal Barth’s GTP solution (Ca^2+-free GTP with inclusion of 1.8 mM CaCl2) at ~4 °C for at least half an hour prior to microinjection.
(§2) Healthy oocytes at developmental stages IV and V were injected with 50 nL of cRNA (into the cytoplasm) or plasmid DNA (into the nucleus) at a concentration of ~100 ng/μL using a Nanolitre 2010 Injector (World Precision Instruments, Hitchin, UK). cRNA or DNA plasmids encoding the rat NMDAR subunits GluN1-1a and GluN2A or GluN1-1a and GluN2B were mixed at ratios of 1:1 (by weight) for injection. The cRNA was synthesized from linearized plasmid DNA (pRK7 or pBluscript SK(−)) containing the GluN-encoding genes using an Invitrogen mMessage mMachine kit (Thermo Fisher Scientific, Loughborough, UK). Injected oocytes were kept in normal Barth’s GTP solution at 19 °C for two to three days for expression of NMDAR subunits before recordings.
(§3) TEVC electrophysiology was used to assess the direct effects of CPF on NMDARs containing GluN1-1a and GluN2A or GluN1-1a and GluN2B subunits expressed in Xenopus oocytes. Pulled borosilicate glass capillaries (GC150TF-10, Harvard Apparatus, Cambridge, UK) (resistances 0.5–2 MΩ) were filled with 3 M KCl and used to impale injected oocytes for recording. Injected oocytes were continuously perfused with Mg^2+-free Xenopus Ringer solution (95 mM NaCl, 2 mM KCl, 2 mM CaCl2, 5 mM HEPES, pH 7.5) at a flow rate of 5 mL/min, with test compounds applied using a Valvelink 8 gravity-fed perfusion system (Automate Scientific, Berkeley, CA, USA). Recordings were performed at 20–25 °C and oocytes were clamped at −75 mV holding potential in all experiments. Output current responses were transferred to a PC via an analogue-to-digital (A/D) converter (National Instruments PCI-6014, Austin, TX, USA) and recorded in WinEDR V3.2.7 software (John Dempster, Strathclyde Electrophysiology Software, Strathclyde Institute of Pharmacy and Biomedical Sciences, University of Strathclyde, Strathclyde, UK). Current changes in response to NMDA/glycine when applied with CPF were normalized to the control current without CPF.
(§4) Results were expressed as means ± standard error of the mean (SEM). Statistical analysis was undertaken between concentrations using an independent samples Kruskal–Wallis test across cell culture conditions using IBM SPSS statistical software (version 26.0). […] EC50 and maximum response values were obtained using non-linear regression by fitting a four-parametric logistic equation to concentration–response plots in GraphPad Prism 10 (GraphPad Software Inc., La Jolla, CA, USA):(1) Y=Min+Max−Min/10^LogEC50−XS+1 where Y is the response to the agonist, X is the log10 concentration of the agonist, EC50 is the concentration of agonist that produces a half-maximum activation response, and S is the Hill slope. EC50s and maximum responses were compared for significant differences using an extra sum of squares F-test in GraphPad Prism 10.

Data set [2] is described as follows: Three-color fluorescence (FDA/PI) live, dead and apoptotic cell staining. In kind it is cell-based, human. As to conditions: human, 14 μM CPF, control 96.4%, p < 0.001, read-out: cell viability (live cells). The procedure:
(§5) The human neural progenitor ReNcell CX cell line (Merck Millipore, Watford, UK) is a neural stem cell line derived from the developing human fetal brain cortex ([…]) at 14 weeks of gestational age. The ReNcell CX cell line was expanded on laminin-coated flasks (20 μg/mL; Sigma-Aldrich, Poole, UK) in ReNcell Neural Stem Cell (NSC) Maintenance Medium (Merck Millipore, Watford, UK) containing fresh EGF (20 ng/mL; Merck Millipore, Watford, UK) and FGF-b (20 ng/mL; Merck Millipore, Watford, UK). Cultures were incubated at 37 °C in a 95% humidified atmosphere of 5% CO2. ReNcell CX neural progenitor cells were differentiated into a co-culture of neurons, astrocytes, and oligodendrocytes by replacing the complete ReNcell CX medium with EGF- and FGF-b-free medium; with the differentiation medium refreshed every 2 days throughout the 4-week differentiation period.
(§6) A three-color fluorescence assay was performed as described by Kim et al.. Non-fluorescent fluorescein diacetate (FDA) permeates into active and intact cells and is hydrolyzed by intracellular esterases into a highly fluorescent green fluorescein when illuminated with a fluorescein isothiocyanate (FITC; blue) excitation filter set (emission wavelength […]). Propidium iodide (PI) is a nucleic acid dye that cannot permeate intact cell membranes and selectively stains the nuclei of dead cells or cells in late apoptotic stages. Stained nuclei omit red fluorescence under rhodamine (green) excitation (emission wavelength 650 nm). Live–dead cell assays followed the protocol described by Jones and Senft. The cells were observed using a Nikon TS100 inverted microscope (Nikon Europe B.V., Amstelveen, The Netherlands) with incident fluorescence optics. Images were captured at 200× magnification and digitalized with a Moticam 2300 camera (Roper Scientific Inc., Duluth, GA, USA; resolution 3 MP).
(§7) Live/dead cell staining was analyzed quantitatively. The number of PI-stained nuclei was counted manually using the cell counting option in the ImageJ software (V2 Fiji-win64, University of Nottingham).

In data set [3] the test system is 4-week differentiated ReNcell CX cells. The description is as above. The following applies: 24 h. In kind it is cell-based, human. The procedure: as §5, §6, §7
The conditions of data set [4]: cited from earlier work.
Data set [5] concerns the target T2, GluN1-1a/GluN2A NMDAR (Rattus norvegicus, UniProt P35439+Q00959).
T2 construct: expressed in transfected cells; host or cells: Xenopus laevis oocytes, injected with cRNA or plasmid DNA (pRK7 or pBluescript SK(-))
The data set is described as follows: TEVC electrophysiology of Xenopus oocytes expressing GluN1-1a/GluN2A. In kind it is cell-based. How it is done: as §1, §2, §3, §4

Setting [6] is: 10 μM CPF applied directly, −75 mV.

T1 sequence (Q00960 27-1482, other chains not shown): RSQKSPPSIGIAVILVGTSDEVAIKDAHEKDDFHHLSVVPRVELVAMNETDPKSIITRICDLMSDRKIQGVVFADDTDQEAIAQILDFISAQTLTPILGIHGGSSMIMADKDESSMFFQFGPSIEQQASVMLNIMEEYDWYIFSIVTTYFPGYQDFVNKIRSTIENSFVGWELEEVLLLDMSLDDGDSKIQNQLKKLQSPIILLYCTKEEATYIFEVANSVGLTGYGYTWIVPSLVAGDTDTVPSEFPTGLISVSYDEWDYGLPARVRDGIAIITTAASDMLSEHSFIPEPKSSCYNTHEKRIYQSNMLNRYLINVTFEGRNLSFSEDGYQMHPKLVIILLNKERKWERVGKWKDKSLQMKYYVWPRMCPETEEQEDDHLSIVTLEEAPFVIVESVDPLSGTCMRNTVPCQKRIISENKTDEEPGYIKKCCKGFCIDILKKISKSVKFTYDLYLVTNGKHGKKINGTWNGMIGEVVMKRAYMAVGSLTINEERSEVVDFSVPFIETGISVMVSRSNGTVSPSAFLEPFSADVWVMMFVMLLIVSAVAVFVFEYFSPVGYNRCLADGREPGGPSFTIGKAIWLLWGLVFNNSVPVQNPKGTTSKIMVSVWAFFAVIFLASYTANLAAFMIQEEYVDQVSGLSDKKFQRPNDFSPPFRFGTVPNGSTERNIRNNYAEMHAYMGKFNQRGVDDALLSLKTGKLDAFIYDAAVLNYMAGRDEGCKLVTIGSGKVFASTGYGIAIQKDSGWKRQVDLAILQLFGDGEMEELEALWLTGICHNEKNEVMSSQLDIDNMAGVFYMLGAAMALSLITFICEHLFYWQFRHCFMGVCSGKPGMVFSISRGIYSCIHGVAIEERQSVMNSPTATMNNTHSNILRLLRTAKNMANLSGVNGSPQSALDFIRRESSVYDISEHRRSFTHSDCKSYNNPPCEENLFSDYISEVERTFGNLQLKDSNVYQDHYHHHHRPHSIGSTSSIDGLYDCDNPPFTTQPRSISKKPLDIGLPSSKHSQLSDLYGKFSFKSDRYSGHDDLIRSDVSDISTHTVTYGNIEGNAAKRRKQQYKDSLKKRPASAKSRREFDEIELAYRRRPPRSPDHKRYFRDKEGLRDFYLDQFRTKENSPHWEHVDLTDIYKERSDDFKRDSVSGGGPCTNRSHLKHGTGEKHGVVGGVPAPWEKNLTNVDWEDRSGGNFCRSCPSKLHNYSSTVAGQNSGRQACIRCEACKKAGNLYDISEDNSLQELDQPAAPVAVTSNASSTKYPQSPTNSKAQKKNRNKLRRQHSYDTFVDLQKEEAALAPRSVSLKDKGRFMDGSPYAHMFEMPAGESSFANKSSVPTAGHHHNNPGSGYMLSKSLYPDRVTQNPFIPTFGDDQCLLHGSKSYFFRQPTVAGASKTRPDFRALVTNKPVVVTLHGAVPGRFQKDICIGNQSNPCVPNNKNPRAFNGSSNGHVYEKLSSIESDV
T2 sequence (Q00959 20-1464 limits assumed, other chains not shown): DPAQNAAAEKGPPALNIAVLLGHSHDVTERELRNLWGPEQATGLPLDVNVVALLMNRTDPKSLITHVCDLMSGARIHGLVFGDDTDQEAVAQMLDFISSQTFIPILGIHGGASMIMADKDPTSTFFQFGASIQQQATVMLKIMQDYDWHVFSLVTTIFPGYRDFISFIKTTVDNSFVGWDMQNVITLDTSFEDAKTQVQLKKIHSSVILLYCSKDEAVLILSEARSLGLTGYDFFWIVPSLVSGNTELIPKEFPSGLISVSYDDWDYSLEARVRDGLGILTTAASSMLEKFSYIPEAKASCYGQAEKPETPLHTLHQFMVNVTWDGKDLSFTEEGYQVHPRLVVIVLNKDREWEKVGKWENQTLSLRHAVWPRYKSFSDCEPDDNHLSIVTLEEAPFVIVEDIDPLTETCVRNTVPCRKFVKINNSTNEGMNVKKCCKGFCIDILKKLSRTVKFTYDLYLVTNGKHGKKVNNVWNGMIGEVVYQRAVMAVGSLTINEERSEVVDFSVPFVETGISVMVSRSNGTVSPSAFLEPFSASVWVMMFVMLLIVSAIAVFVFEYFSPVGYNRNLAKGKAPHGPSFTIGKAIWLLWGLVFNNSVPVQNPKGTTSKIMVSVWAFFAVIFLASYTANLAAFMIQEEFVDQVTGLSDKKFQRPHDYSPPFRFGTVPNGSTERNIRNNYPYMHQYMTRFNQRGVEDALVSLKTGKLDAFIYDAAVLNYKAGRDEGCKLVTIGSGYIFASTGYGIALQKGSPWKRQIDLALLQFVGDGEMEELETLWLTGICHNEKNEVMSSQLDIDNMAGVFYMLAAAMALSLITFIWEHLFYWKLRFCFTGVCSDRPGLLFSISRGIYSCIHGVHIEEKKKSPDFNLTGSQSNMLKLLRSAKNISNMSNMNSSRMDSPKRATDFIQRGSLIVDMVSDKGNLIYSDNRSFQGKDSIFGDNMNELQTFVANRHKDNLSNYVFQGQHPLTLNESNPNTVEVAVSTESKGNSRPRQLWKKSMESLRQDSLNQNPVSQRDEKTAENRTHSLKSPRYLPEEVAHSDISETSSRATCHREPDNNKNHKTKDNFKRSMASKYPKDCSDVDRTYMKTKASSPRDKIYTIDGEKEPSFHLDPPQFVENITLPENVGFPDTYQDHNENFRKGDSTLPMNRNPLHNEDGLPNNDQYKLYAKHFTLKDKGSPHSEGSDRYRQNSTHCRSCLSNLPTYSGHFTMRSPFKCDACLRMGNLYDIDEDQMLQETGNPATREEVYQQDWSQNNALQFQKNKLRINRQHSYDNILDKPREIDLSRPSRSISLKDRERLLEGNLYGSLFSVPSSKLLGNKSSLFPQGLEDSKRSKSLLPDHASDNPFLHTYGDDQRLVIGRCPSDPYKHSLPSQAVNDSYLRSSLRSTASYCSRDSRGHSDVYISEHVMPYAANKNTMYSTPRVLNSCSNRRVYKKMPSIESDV

As for `CCOP(=S)(OCC)Oc1nc(Cl)c(Cl)cc1Cl` [CPF, O,O-diethyl O-(3,5,6-trichloropyridin-2-yl) phosphorothioate], the pEC50 in data set [1] was around 7.26; in data set [5], around 7.40. Also, the “direct activation by CPF alone” value in data set [1] (setting [6]) and in data set [5] (setting [6]) was “resulted in NMDAR-mediated currents” each time. In addition, the “enhancement of current evoked by 100 μM NMDA” value in data set [1] (10 μM CPF co-applied with 100 μM NMDA, n = 5, p < 0.05) was ~ 8.2 fold. Besides, the viability at 24 h, 14 μM in data set [2] was found to be 71.4%. Besides, the “cells transitioned to apoptosis” value in data set [3] (14 μM CPF) was determined as 18.7%. This molecule also had a dead cells in data set [3] (14 μM CPF) of 3.91%. Further, the “no observed adverse effect level (NOAEL), as concentration” value in data set [4] (conversion of 100 μg/kg/day as printed) was “≈ 285 nM”. Moreover, the “no observed adverse effect level (NOAEL)” value in data set [4] (set by European Food Safety Authority) was 100 µg/kg/day. Also, the “enhancement of current evoked by 10 μM glycine” value in data set [5] (1 μM CPF co-applied with 10 μM glycine, n = 3, p < 0.05) is on record as ~ 1.7 fold.
As for `CC(C(O)c1ccc(O)cc1)N1CCC(Cc2ccccc2)CC1` (stereo not drawn) [IFN, ifenprodil, reference compound], in data set [1] (100 μM IFN with 1 μM CPF, 10 μM NMDA, 10 μM Gly, −75 mV), the “antagonism of CPF-induced potentiation of NMDA/glycine-evoked current” value is reported as “completely blocked”. Besides, in data set [3] (25 μM IFN co-administered with 14 μM CPF, p < 0.001), the “effect on CPF-induced decrease in cell viability” value was “attenuated the CPF-induced decrease in ReNcell CX cell viability”.
As for `C[C@]12N[C@H](Cc3ccccc31)c1ccccc12` [MK-801, reference compound], the “antagonism of CPF-induced potentiation of NMDA/glycine-evoked current” value in data set [5] (10 μM MK-801 with 1 μM CPF, 10 μM NMDA, 10 μM Gly, −75 mV) is “completely blocked”.
In the case of `CN[C@H](CC(=O)O)C(=O)O` [NMDA, N-methyl-D-aspartate], the “maximum response (percentage of the response to 1 mM NMDA)” value stood at 103% in data set [1] (10 μM glycine, absence of CPF) and 102% in data set [5] (10 μM glycine, absence of CPF). The negative logarithm of the EC50 (pEC50) in data set [1] (10 μM glycine, absence of CPF, n = 6, read-out: NMDA EC50) was 4.15; in data set [5] (10 μM glycine, absence of CPF, n = 5, read-out: NMDA EC50), 4.24.

In general, pEC50 refers to the EC50 on a negative log10 scale, so that one unit is a factor of ten. The term viability denotes the share of living cells, or the viability signal relative to a control.
